Data published in ChEMBL document CHEMBL1134002, “N-Aminoindoline derivatives as inhibitors of 5-lipoxygenase” (Bioorg Med Chem Lett, 2001).

Assays:
[1] = molecular target: T1, Polyunsaturated fatty acid 5-lipoxygenase (Rattus norvegicus) (UniProt P12527); assay: In vitro percent inhibition against 5-lipoxygenase in RBL-1 cells at 10 uM concentration; type: cell-based
T1 sequence (whole entry): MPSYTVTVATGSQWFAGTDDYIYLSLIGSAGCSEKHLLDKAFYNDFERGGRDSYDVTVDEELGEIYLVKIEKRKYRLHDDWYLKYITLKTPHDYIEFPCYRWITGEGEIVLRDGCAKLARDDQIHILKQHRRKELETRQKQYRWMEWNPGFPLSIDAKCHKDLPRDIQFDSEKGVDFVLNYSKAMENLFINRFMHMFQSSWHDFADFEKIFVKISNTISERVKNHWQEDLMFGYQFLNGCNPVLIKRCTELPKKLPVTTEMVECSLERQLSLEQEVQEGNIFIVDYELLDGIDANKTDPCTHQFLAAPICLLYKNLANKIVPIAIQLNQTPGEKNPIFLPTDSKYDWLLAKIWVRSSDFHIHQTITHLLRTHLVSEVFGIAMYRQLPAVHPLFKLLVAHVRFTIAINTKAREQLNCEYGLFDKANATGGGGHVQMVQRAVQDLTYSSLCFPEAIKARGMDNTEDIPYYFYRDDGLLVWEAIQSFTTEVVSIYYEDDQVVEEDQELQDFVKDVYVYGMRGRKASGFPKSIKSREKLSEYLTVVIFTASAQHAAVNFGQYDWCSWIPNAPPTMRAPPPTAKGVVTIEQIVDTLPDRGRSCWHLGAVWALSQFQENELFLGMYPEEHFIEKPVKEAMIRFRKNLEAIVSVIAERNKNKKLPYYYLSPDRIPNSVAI

[2] = molecular target: T1, Polyunsaturated fatty acid 5-lipoxygenase (Rattus norvegicus); assay: In vitro percent inhibition against 5-lipoxygenase in RBL-1 cells at 1 uM concentration; type: cell-based
[3] = molecular target: T1, Polyunsaturated fatty acid 5-lipoxygenase (Rattus norvegicus); conditions: RBL-1; 10 uM
[4] = molecular target: T2, Polyunsaturated fatty acid 5-lipoxygenase (Rattus norvegicus, UniProt P12527); assay: In vitro inhibitory concentration against 5-lipoxygenase in RBL-1 cells; type: cell-based
T2 sequence (P12527 whole entry): T1 sequence (whole entry)

| inhibition [1] [%] | SMILES | also measured |
| --- | --- | --- |
| 18 | O=C(O)CCC/C=C/c1ccc(C(=O)NN2CCc3ccccc32)cc1 | – |
| – | CCCCCCCCCCNC(=O)CCC/C=C/c1ccc(C(=O)NN2CCc3ccccc32)cc1 | inhibition [2]: 57% |
| 15 | O=C(NN1CCc2ccccc21)c1ccccc1 | – |
| – | CC(Cc1ccc(O)c(O)c1)C(C)Cc1ccc(O)c(O)c1 (centres undefined) | inhibition [3]: 73% |
| 28 | CN(NC(=O)c1ccccc1)c1ccccc1 | – |
| 20 | COc1ccc2c(c1)CCN2NC(=O)c1ccccc1 | – |
| 80 | O=C(NN1CCc2cc(O)ccc21)c1ccccc1 | IC50 [4]: 3.47 µM |
| 53 | CN(NS(=O)(=O)c1ccccc1)c1ccccc1 | – |
